The text below walks through data of patent US8153633B2, “Phthalazine compounds, compositions and methods of use” (Amgen Inc., priority 2007, dated 2012).

In assay [1] the test system is Gli1 expression (Smoothened signaling). The assay is described as follows: Gli1 expression in mouse skin after depilation and oral compound dosing (quantitative PCR relative to RGS). It counts as in vivo. The following applies: five days after depilation, six hours after administration. On the procedure: Paladini et al. (2005) J Invest Dermatol 125:638-646. For this work, the mice were deplilated using wax strips (Sally Hansen, Del Laboratories, Inc, Uniondale, N.Y.). Five days after depilation, mice were dosed orally with compound or vehicle. Six hours after compound administration, animals were euthanized and skin samples were collected. RNA was purified from the skin samples using a mirVana miRNA Isolation kit (Ambion, Austin, Tex.). cDNA was prepared from the RNA, and Gli1 expression levels were determined by real-time, quantitative PCR relative to the RGS reference gene.

The subject of assay [2] is medulloblastomas from Ptch+/−p53−/− mice. The assay is described as follows: Mouse medulloblastoma allograft model, antitumor activity in vivo. The following applies: 10 mg/kg, one dose per day, after 6 days of treatment; tumors of average size 200 mm^3 at start. As for the experimental part: Briefly, medulloblastomas from Ptch+/−p53−/− mice were subcutaneously implanted into immunocompromised mice, and subsequent passages of these tumor allografts were used for compound testing. For compound studies, animals bearing tumors with an average size of 200 mm^3 were treated with vehicle or 10 mg/kg compound 23 on a schedule of one dose per day for a total of 6 days.

`C[C@H]1CN(c2nnc(-c3ccccc3)c3ccccc23)CCN1C(=O)c1ccccc1` [Compound 5, (S)-(2-methyl-4-(4-phenylphthalazin-1-yl)piperazin-1-yl)(phenyl)-methanone]: in assay [1] (100 mg/kg oral), the “[Gli1/RGS ratio compound]/[Gli1/RGS ratio vehicle]” value came to 0.41.

With `C[C@@H]1CN(C(=O)c2ccccc2)CCN1c1nnc(-c2ccc(C(F)(F)F)cc2)c2ccccc12` [Compound 23, (R)-(3-methyl-4-(4-(4-(trifluoromethyl)-phenyl)-phthalazin-1-yl)piperazin-1-yl)(phenyl)-methanone], the “reduction in tumor size relative to vehicle control” value in assay [2] is recorded as more than 99%. Further, the “[Gli1/RGS ratio compound]/[Gli1/RGS ratio vehicle]” value in assay [1] (50 mg/kg oral) turned out to be 0.33.
